This passage reports DC50 results from US20260306640A1, “TECHNOLOGIES TARGETING CELL STATES” (Auron Therapeutics, Inc., priority 2023, published 2026).

Structures are written as SMILES.

For test [1], the target named is KAT2A (Homo sapiens, UniProt Q92830). Put plainly: KAT2A degradation, Western Blot (Jess), NCI-H1048 cells. It counts as cell-based. Details: degrader, Western blot (Jess). As to conditions: NCI-H1048 cells, KAT2A, 24 h, Western Blot, vs DMSO; read-out: KAT2A NCI-H1048 DC50. The protocol:
(§1) MOLM-13 cells or NCI-H1048 cells were used for Western Blot analysis of KAT2A degradation. KAT2B degradation can be measured in a similar manner with NCI-H1048 cells.
(§2) H1048 cells were maintained at 37° C. in 5% CO2 and 90% humidity in HITES medium with 5% fetal bovine serum (FBS). HITES medium was […] with the following additions: 0.005 mg/ml Insulin, 0.01 mg/ml Transferrin, 30 nM Sodium selenite, 10 nM Hydrocortisone, 10 nM beta-estradiol, and extra 2 mM L-glutamine (for final concentration of 4.5 mM). Cells were plated in full media at 1 million cells/2 mL in a 6-well tissue culture treated plate with or without compounds for 24 h at 37° C. in 5% CO2.
(§3) MOLM-13 cells or NCI-H1048 cells were washed with PBS, then lysed with RIPA buffer containing 1×protease and phosphatase inhibitors (SantaCruz Biotechnologies Cat #sc-24948A). Protein was isolated by centrifugation at 12,000×g for 10 minutes at 4° C. and supernatant was collected. Protein was quantified via Bradford assay. Samples were diluted to 4 μg lysate in 16 μL RIPA buffer and then 4 μL of Jess Sample Buffer. Samples were heated at 95° C. for 5 minutes. Samples were loaded onto 12-230 kDa Jess™ Separation Module, 8×25 capillary cartridges (SM-W004, Biotechne). Antibodies loaded were: Primary antibody for KAT2A (GCN5L2 (C26A10) Rabbit mAb (3305, CST)) and for KAT2B (PCAF (C14G9)) Rabbit mAb (3378, CST) at 1:1000 and Anti-Rabbit Detection Module for Jess™ (Cat No #DM-001, Biotechne). Signal was detected by chemiluminescence.
(§4) DC50 values were determined from percent reduction of protein as compared to the DMSO control.
Background: A western blot detects proteins with antibodies after separation by electrophoresis.

In test [2] the target is KAT2B (Homo sapiens, UniProt Q92831). Put plainly: KAT2B degradation, Western Blot (Jess), NCI-H1048 cells. Type of test: cell-based. Details: degrader, Western blot (Jess). The settings on record: NCI-H1048 cells, KAT2B, 24 h, Western Blot, vs DMSO; read-out: KAT2B NCI-H1048 DC50. The protocol: as §1, §2, §3, §4
Chain of KAT2B (Q92831 whole entry): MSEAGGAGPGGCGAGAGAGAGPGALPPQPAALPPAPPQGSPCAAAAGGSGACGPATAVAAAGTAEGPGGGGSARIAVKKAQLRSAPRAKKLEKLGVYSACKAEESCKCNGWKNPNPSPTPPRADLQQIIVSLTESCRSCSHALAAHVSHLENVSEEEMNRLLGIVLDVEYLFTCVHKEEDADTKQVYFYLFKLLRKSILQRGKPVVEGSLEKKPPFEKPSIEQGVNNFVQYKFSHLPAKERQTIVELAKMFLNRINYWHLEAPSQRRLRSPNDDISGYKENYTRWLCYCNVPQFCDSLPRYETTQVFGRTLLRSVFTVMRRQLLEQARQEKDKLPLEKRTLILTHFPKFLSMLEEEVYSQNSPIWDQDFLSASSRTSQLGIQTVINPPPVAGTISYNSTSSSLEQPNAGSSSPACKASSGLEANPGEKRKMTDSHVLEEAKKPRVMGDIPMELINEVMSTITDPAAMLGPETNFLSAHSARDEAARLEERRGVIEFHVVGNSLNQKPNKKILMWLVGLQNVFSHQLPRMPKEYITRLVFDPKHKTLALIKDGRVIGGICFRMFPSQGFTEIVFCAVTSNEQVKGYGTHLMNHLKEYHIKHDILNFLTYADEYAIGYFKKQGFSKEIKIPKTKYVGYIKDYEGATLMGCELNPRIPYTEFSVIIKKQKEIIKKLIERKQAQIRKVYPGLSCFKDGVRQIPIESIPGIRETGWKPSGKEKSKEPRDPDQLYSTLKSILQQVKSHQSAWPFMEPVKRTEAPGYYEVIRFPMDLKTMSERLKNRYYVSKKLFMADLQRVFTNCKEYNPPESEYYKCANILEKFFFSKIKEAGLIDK

Chain of KAT2A (Q92830 whole entry): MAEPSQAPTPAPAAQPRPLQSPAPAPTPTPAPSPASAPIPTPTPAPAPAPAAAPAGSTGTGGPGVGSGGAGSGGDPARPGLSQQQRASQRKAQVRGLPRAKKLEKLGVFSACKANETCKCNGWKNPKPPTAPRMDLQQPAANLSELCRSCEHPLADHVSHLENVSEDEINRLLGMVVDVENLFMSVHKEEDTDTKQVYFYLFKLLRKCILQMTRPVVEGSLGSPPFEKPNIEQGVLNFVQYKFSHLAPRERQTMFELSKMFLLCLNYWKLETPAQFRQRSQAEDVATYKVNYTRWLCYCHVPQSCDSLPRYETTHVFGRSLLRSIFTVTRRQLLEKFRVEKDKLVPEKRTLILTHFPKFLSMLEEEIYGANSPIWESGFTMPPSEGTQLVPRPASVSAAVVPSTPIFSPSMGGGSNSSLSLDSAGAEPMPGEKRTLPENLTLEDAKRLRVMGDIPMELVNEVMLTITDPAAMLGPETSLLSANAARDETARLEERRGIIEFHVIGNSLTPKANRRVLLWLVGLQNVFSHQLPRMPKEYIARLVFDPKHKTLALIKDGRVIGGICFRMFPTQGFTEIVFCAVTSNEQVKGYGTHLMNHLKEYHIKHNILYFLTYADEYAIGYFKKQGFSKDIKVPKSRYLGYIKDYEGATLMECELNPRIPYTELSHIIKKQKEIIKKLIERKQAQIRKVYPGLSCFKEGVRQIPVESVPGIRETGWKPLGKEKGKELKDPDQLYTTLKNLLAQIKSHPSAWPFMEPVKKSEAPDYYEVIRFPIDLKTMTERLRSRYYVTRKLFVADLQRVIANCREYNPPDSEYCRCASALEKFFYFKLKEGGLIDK

`Cc1cc(N2CCC3(CCN(C(=O)c4ccc([C@H]5C[C@@H](Nc6cnn(C)c(=O)c6Br)CN(C)C5)cc4)CC3)CC2)cnc1C1CCC(=O)NC1=O` (some centres unmarked) [Compound 246]: the 50% degradation concentration (DC50) in test [1] and in test [2] was less than 1 nM in each case.
As for `Cc1cc(N2CCC3(CCN(C(=O)c4ccc([C@H]5C[C@@H](Nc6cnn(C)c(=O)c6Cl)CN(C)C5)cc4)CC3)CC2)cnc1C1CCC(=O)NC1=O` (some centres unmarked) [Compound 247], the DC50 is less than 1 nM in test [1] and 1 to 30 nM in test [2].
With `Cc1cc(C2CCC(=O)NC2=O)ccc1N1CCC2(CCN(C(=O)c3ccc([C@H]4C[C@@H](Nc5cnn(C)c(=O)c5Br)CN(C)C4)cc3)CC2)CC1` (some centres unmarked) [Compound 248], the DC50 was less than 1 nM in test [1] and 1 to 30 nM in test [2].
The like results for `Cc1cc(C2CCC(=O)NC2=O)ccc1N1CCC2(CCN(C(=O)c3ccc([C@H]4C[C@@H](Nc5cnn(C)c(=O)c5C)CN(C)C4)cc3)CC2)CC1` (some centres unmarked) [Compound 249] were, in that order, less than 1 nM and 1 to 30 nM.
For `CN1C[C@H](Nc2cnn(C)c(=O)c2Cl)C[C@H](c2ccc(C(=O)N3CCC4(CC3)CCN(c3ccc(C5CCC(=O)NC5=O)c(F)c3F)CC4)cc2)C1` (some centres unmarked) [Compound 251], the values for the 50% degradation concentration (DC50) in test [1] and in test [2] were less than 1 nM and 1 to 30 nM, respectively.
In the case of `Cc1c(N[C@@H]2C[C@H](c3ccc(C(=O)N4CCC5(CC4)CCN(c4ccc(C6CCC(=O)NC6=O)c(F)c4F)CC5)cc3)CN(C)C2)cnn(C)c1=O` (some centres unmarked) [Compound 252], the DC50 in test [1] was less than 1 nM; in test [2] it was 1 to 30 nM.
The like results for `Cc1c(C2CCC(=O)NC2=O)ccc(N2CCC3(CCN(C(=O)c4ccc([C@H]5C[C@@H](Nc6cnn(C)c(=O)c6Br)CN(C)C5)cc4)CC3)CC2)c1F` (some centres unmarked) [Compound 254] were, in that order, less than 1 nM and 1 to 30 nM.
As for `Cc1cc(N2CCC3(CCN(C(=O)c4ccc([C@H]5C[C@@H](Nc6cnn(C)c(=O)c6C)CN(C)C5)cc4)CC3)CC2)cc(F)c1C1CCC(=O)NC1=O` (some centres unmarked) [Compound 255], the DC50 in test [1] and in test [2] was less than 1 nM each time.
`Cc1c(C2CCC(=O)NC2=O)ccc(N2CCC3(CCN(C(=O)c4ccc([C@H]5C[C@@H](Nc6cnn(C)c(=O)c6C)CN(C)C5)cc4)CC3)CC2)c1F` (some centres unmarked) [Compound 256]: the DC50 in test [1] is less than 1 nM; in test [2] it was 1 to 30 nM.
With `COc1cc(C2CCC(=O)NC2=O)ccc1N1CCC2(CCN(C(=O)c3ccc([C@H]4C[C@@H](Nc5cnn(C)c(=O)c5C)CN(C)C4)cc3)CC2)CC1` (some centres unmarked) [Compound 257], the results for the DC50 in test [1] and in test [2] were less than 1 nM and 1 to 30 nM, respectively.
With `COc1cc(C2CCC(=O)NC2=O)ccc1N1CCC2(CCN(C(=O)c3ccc([C@H]4C[C@@H](Nc5cnn(C)c(=O)c5Cl)CN(C)C4)cc3)CC2)CC1` (some centres unmarked) [Compound 258], the DC50 in test [1] is less than 1 nM; in test [2] it was greater than 30 nM.
Turning to `CN1C[C@H](Nc2cnn(C)c(=O)c2Br)C[C@H](c2ccc(C(=O)N3CCC4(CC3)CCN(c3ccc(C5CCC(=O)NC5=O)cc3OC(F)(F)F)CC4)cc2)C1` (some centres unmarked) [Compound 259], the results for the DC50 in test [1] and in test [2] were less than 1 nM and 1 to 30 nM, respectively.
For the compound `CN1C[C@H](Nc2cnn(C)c(=O)c2Cl)C[C@H](c2ccc(C(=O)N3CCC4(CC3)CCN(c3ccc(C5CCC(=O)NC5=O)cc3OC(F)(F)F)CC4)cc2)C1` (some centres unmarked) [Compound 260], the DC50 was less than 1 nM in test [1] and 1 to 30 nM in test [2].
Turning to `CN1C[C@H](Nc2cnn(C)c(=O)c2Br)C[C@H](c2ccc(C(=O)N3CCC4(CC3)CCN(c3ccc(C5CCC(=O)NC5=O)cn3)CC4)cc2)C1` (some centres unmarked) [Compound 261], the DC50 in test [1] and in test [2] was less than 1 nM throughout.
`CN1C[C@H](Nc2cnn(C)c(=O)c2Cl)C[C@H](c2ccc(C(=O)N3CCC4(CC3)CCN(c3ccn(C5CCC(=O)NC5=O)c(=O)c3)CC4)cc2)C1` (some centres unmarked) [Compound 262]: the results for the DC50 in test [1] and in test [2] were less than 1 nM and 1 to 30 nM, respectively.
With `COc1cc(N2CCC3(CCN(C(=O)c4ccc([C@H]5C[C@@H](Nc6cnn(C)c(=O)c6Br)CN(C)C5)cc4)CC3)CC2)ccc1C1CCC(=O)NC1=O` (some centres unmarked) [Compound 263], the DC50 in test [1] and in test [2] was less than 1 nM in each case.
As to `CN1C[C@H](Nc2cnn(C)c(=O)c2Cl)C[C@H](c2ccc(C(=O)N3CCC4(CC3)CCN(c3ncc(C5CCC(=O)NC5=O)cn3)CC4)cc2)C1` (some centres unmarked) [Compound 264], the DC50 in test [1] and in test [2] was less than 1 nM throughout.
Consider `Cc1cc(N2CCC3(CCN(C(=O)c4ccc([C@H]5C[C@@H](Nc6cnn(C)c(=O)c6Br)CN(C)C5)cc4)CC3)CC2)ccc1C1CCC(=O)NC1=O` (some centres unmarked) [Compound 265], for which the half-maximal degradation concentration (DC50) in test [1] and in test [2] was less than 1 nM each time.
Consider `Cc1cc(N2CCC3(CCN(C(=O)c4ccc([C@H]5C[C@@H](Nc6cnn(C)c(=O)c6Cl)CN(C)C5)cc4)CC3)CC2)ncc1C1CCC(=O)NC1=O` (some centres unmarked) [Compound 266], for which the DC50 in test [1] and in test [2] was less than 1 nM each time.
With `Cc1cc(C2CCC(=O)NC2=O)cnc1N1CCC2(CCN(C(=O)c3ccc([C@H]4C[C@@H](Nc5cnn(C)c(=O)c5Cl)CN(C)C4)cc3)CC2)CC1` (some centres unmarked) [Compound 267], the DC50 in test [1] and in test [2] was less than 1 nM throughout.
In the case of `CN1C[C@H](Nc2cnn(C)c(=O)c2Cl)C[C@H](c2ccc(C(=O)N3CCC4(CC3)CCN(c3ccc(CN5CCC(=O)NC5=O)cc3)CC4)cc2)C1` [Compound 268], the values for the DC50 in test [1] and in test [2] were less than 1 nM and greater than 30 nM, respectively.
`Cc1c(N[C@@H]2C[C@H](c3ccc(C(=O)N4CCC5(CC4)CCN(c4ccc(C6CCC(=O)NC6=O)cc4OC(F)(F)F)CC5)cc3)CN(C)C2)cnn(C)c1=O` (some centres unmarked) [Compound 269]: the DC50 in test [1] is 1 to 30 nM; in test [2], greater than 30 nM.
For `CN1C[C@H](Nc2cnn(C)c(=O)c2Cl)C[C@H](c2ccc(C(=O)N3CCC4(CC3)CCN(c3cc(C(F)(F)F)c(C5CCC(=O)NC5=O)cn3)CC4)cc2)C1` (some centres unmarked) [Compound 270], the DC50 in test [1] and in test [2] was greater than 30 nM in each case.
As to `CN1C[C@H](Nc2cnn(C)c(=O)c2Br)C[C@H](c2ccc(C(=O)N3CCC4(CC3)CCN(c3ncc(C5CCC(=O)NC5=O)cn3)CC4)cc2)C1` (some centres unmarked) [Compound 271], the DC50 in test [1] and in test [2] was less than 1 nM in each case.
As to `Cc1c(N[C@@H]2C[C@H](c3ccc(C(=O)N4CCC5(CC4)CCN(c4cnc(C6CCC(=O)NC6=O)c(F)c4)CC5)cc3)CN(C)C2)cnn(C)c1=O` (some centres unmarked) [Compound 272], the DC50 in test [1] was less than 1 nM; in test [2], greater than 30 nM.
The like results for `Cc1cc(N2CCC3(CCN(C(=O)c4ccc([C@H]5C[C@@H](Nc6cnn(C)c(=O)c6Br)CN(C)C5)cc4)CC3)CC2)ncc1C1CCC(=O)NC1=O` (some centres unmarked) [Compound 273] were, in that order, less than 1 nM and less than 1 nM.
Consider `Cc1cc(C2CCC(=O)NC2=O)cnc1N1CCC2(CCN(C(=O)c3ccc([C@H]4C[C@@H](Nc5cnn(C)c(=O)c5Br)CN(C)C4)cc3)CC2)CC1` (some centres unmarked) [Compound 274], for which the DC50 in test [1] and in test [2] was less than 1 nM each time.
Consider `Cc1cc(C2CCC(=O)NC2=O)c(F)cc1N1CCC2(CCN(C(=O)c3ccc([C@H]4C[C@@H](Nc5cnn(C)c(=O)c5Br)CN(C)C4)cc3)CC2)CC1` (some centres unmarked) [Compound 275], for which the 50% degradation concentration (DC50) in test [1] and in test [2] was 1 to 30 nM throughout.
Regarding `CN1C[C@H](Nc2cnn(C)c(=O)c2Cl)C[C@H](c2ccc(C(=O)N3CCC4(CC3)CCN(c3cc(F)c(C5CCC(=O)NC5=O)cc3F)CC4)cc2)C1` (some centres unmarked) [Compound 276], the DC50 in test [1] and in test [2] was less than 1 nM each time.
Take `CN1C[C@H](Nc2cnn(C)c(=O)c2Cl)C[C@H](c2ccc(C(=O)N3CCC4(CC3)CCN(c3ccc(C5CCC(=O)NC5=O)c(OC(F)(F)F)c3)CC4)cc2)C1` (some centres unmarked) [Compound 277]: the DC50 in test [1] and in test [2] was greater than 30 nM in each case.
On to `COc1cc(N2CCC3(CCN(C(=O)c4ccc([C@H]5C[C@@H](Nc6cnn(C)c(=O)c6Br)CN(C)C5)cc4)CC3)CC2)c(F)cc1C1CCC(=O)NC1=O` (some centres unmarked) [Compound 278], for which the DC50 in test [1] was 1 to 30 nM; in test [2] it was greater than 30 nM.
`COc1cc(N2CCC3(CCN(C(=O)c4ccc([C@H]5C[C@@H](Nc6cnn(C)c(=O)c6Cl)CN(C)C5)cc4)CC3)CC2)c(F)cc1C1CCC(=O)NC1=O` (some centres unmarked) [Compound 279]: the DC50 was less than 1 nM in test [1] and greater than 30 nM in test [2].
Consider `Cc1cc(N2CCC3(CCN(C(=O)c4ccc([C@H]5C[C@@H](Nc6cnn(C)c(=O)c6Cl)CN(C)C5)cc4)CC3)CC2)cc(C)c1C1CCC(=O)NC1=O` (some centres unmarked) [Compound 283], for which the DC50 in test [1] and in test [2] was less than 1 nM in each case.
For the compound `COc1cc(N2CCC3(CCN(C(=O)c4ccc([C@H]5C[C@@H](Nc6cnn(C)c(=O)c6Br)CN(C)C5)cc4)CC3)CC2)c(C)cc1C1CCC(=O)NC1=O` (some centres unmarked) [Compound 284], the DC50 in test [1] is less than 1 nM; in test [2] it was greater than 30 nM.

The term DC50 denotes the concentration at which degradation of the target reaches its halfway point.
